Assay results taken from US10662204B2 (PFIZER INC., priority 2018, dated 2020).

Tests used:
[1] = biological target: T1, GDP-loaded KRAS (1-169) G12C, C51S, C80L, C118S (Homo sapiens, UniProt P01116, C118S/C51S/C80L/G12C); assay: Mass Spectrometry Reactivity Assay (MSRA): covalent adduct of compound and KRAS G12C, Percent Modification; format: binding; conditions: for MSRA (% modification) 10 μM 0.50 hr / MSRA (% modification) 10 μM 0.25 hr: 10 μM compound
T1 construct: GDP-loaded KRAS (1-169) G12C, C51S, C80L, C118S
In short: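 Covalent labelling is measured by intact mass: deconvoluted modified and unmodified peak intensities yield percent modification. Compound, usually 5 μM or 10 μM final, reacts at room temperature with 5 μM GDP-bound KRAS G12C (1-169, C51S/C80L/C118S) in Hepes pH 7.5/NaCl/glycerol, sampled at 1, 15, 30, 60 min.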

KRAS G12C = KRAS G12C (Homo sapiens, UniProt P01116, G12C); assay: Cell Activity Assay: accumulation of GDP-bound KRAS G12C in MIAPaCa-2 cells (Raf-1 RBD capture, MSD readout); format: cell-based; parameters: endogenous in cells; host or cells: MIAPaCa-2; conditions: 6 hours, assay limit is 30.00
In short: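 IC50 came from a 4-parameter fit of Ras signal normalized between DMSO and full-inhibition controls. Readout: lysate GTP-Ras bound to immobilized Raf-1 RBD, quantified with pan-Ras antibody and MSD electrochemiluminescence. Lysates derived from MIAPaCa-2 cells treated 6 h with serially diluted compound, 0.3% DMSO.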

Compound | MSRA (% modification) 10 μM 0.50 hr [1] [%] | IC50 (KRAS G12C) [µM] | MSRA (% modification) 10 μM 0.25 hr [1] [%] | MSRA (% modification) 5.0 μM 0.25 hr ([1]; 5.0 μM compound) [%] | MSRA (% modification) 5.0 μM 0.017 hr ([1]; 5.0 μM compound, 0.017 hr) [%]
C=CC(=O)N1CCN(c2nc(N3CC(CN(C)C)C3)nc3c(Oc4c(C)ccc5[nH]ncc45)cccc23)CC1 [Example 10E, 1-[4-(2-{3-[(dimethylamino)methyl]azetidin-1-yl}-8-[(5-methyl-1H-indazol-4-yl)oxy]quinazolin-4-yl)piperazin-1-yl]prop-2-en-1-one] | 21 | 2.32 | – | – | –
C=CC(=O)N1CCN(c2nc(OC[C@H]3CCC(=O)N3)nc3c(Oc4c(C)ccc5[nH]ncc45)cccc23)CC1 [Example 10F, (5R)-5-[({4-(4-acryloylpiperazin-1-yl)-8-[(5-methyl-1H-indazol-4-yl)oxy]quinazolin-2-yl}oxy)methyl]pyrrolidin-2-one] | 65 | 6.07 | 53 | – | –
C=CC(=O)N1CCN(c2nc(OC[C@H]3COCCN3C)nc3c(Oc4c(Cl)c(F)cc5[nH]ncc45)nccc23)CC1 [Example 10H, 1-[4-(8-[(5-chloro-6-fluoro-1H-indazol-4-yl)oxy]-2-{[(3R)-4-methylmorpholin-3-yl]methoxy}pyrido[3,4-d]pyrimidin-4-yl)piperazin-1-yl]prop-2-en-1-one] | 68 | 0.965 | – | 47 | –
C=CC(=O)N1CCN(c2nc(O[C@@H]3CCC[C@H]3N(C)C)nc3c(Oc4c(C)ccc5[nH]ncc45)nccc23)CC1 [Example 11B, 1-[4-(2-{[(1R,2R)-2-(dimethylamino)cyclopentyl]oxy}-8-[(5-methyl-1H-indazol-4-yl)oxy]pyrido[3,4-d]pyrimidin-4-yl)piperazin-1-yl]prop-2-en-1-one] | – | 4.89 | 21 | – | –
C=CC(=O)N1CCN(c2nc(N3CC(N(C)C)C3)nc3c(Oc4c(Cl)c(C)cc5[nH]ncc45)cc(Cl)cc23)CC1 [Example 11E, 1-(4-{6-chloro-8-[(5-chloro-6-methyl-1H-indazol-4-yl)oxy]-2-[3-(dimethylamino)azetidin-1-yl]quinazolin-4-yl}piperazin-1-yl)prop-2-en-1-one] | 68 | 3.95 | – | – | –
C=CC(=O)N1CCN(c2nc(OC[C@@H]3CCC(=O)N3)nc3c(Oc4c(C)ccc5[nH]ncc45)cccc23)CC1 [Example 11F, (5S)-5-[({4-(4-acryloylpiperazin-1-yl)-8-[(5-methyl-1H-indazol-4-yl)oxy]quinazolin-2-yl}oxy)methyl]pyrrolidin-2-one] | 55 | 8.14 | 34 | – | –
C=CC(=O)N1CCN(c2ncnc3c(Oc4c(C)c(C)cc5[nH]ncc45)nccc23)CC1 [Example 12A, 1-(4-{8-[(5,6-dimethyl-1H-indazol-4-yl)oxy]pyrido[3,4-d]pyrimidin-4-yl}piperazin-1-yl)prop-2-en-1-one] | 38 | 2.95 | – | – | –
C=CC(=O)N1CCN(c2nc(OCCN3CCCC3)nc3c(Oc4c(C)ccc5[nH]ncc45)nccc23)CC1 [Example 12B, 1-(4-{8-[(5-methyl-1H-indazol-4-yl)oxy]-2-[2-(pyrrolidin-1-yl)ethoxy]pyrido[3,4-d]pyrimidin-4-yl}piperazin-1-yl)prop-2-en-1-one] | – | 5.45 | 21 | – | –
C=CC(=O)N1CCN(c2ncnc3c(Oc4c(C)ccc5[nH]ncc45)cc(Cl)cc23)CC1 [Example 12C, 1-(4-{6-chloro-8-[(5-methyl-1H-indazol-4-yl)oxy]quinazolin-4-yl}piperazin-1-yl)prop-2-en-1-one] | 34 | 3.91 | – | – | –
C=CC(=O)N1CCN(c2nc(OCCCN(C)C)nc3c(Oc4c(Cl)c(C)cc5[nH]ncc45)cc(Cl)cc23)CC1 [Example 12E, 1-(4-{6-chloro-8-[(5-chloro-6-methyl-1H-indazol-4-yl)oxy]-2-[3-(dimethylamino)propoxy]quinazolin-4-yl}piperazin-1-yl)prop-2-en-1-one] | 79 | 0.835 | – | – | –
C=CC(=O)N1CCN(c2nc(NCC3CCC(=O)N3)nc3c(Oc4c(C)ccc5[nH]ncc45)cccc23)CC1 (stereo not drawn) [Example 12F, 5-[({4-(4-acryloylpiperazin-1-yl)-8-[(5-methyl-1H-indazol-4-yl)oxy]quinazolin-2-yl}amino)methyl]pyrrolidin-2-one] | 20 | 29.1 | – | – | –

These reach a lower IC50 (KRAS G12C). Values come first.

MSRA (% modification) 10 μM 0.50 hr [1] [%] | IC50 (KRAS G12C) [µM] | MSRA (% modification) 10 μM 0.25 hr [1] [%] | MSRA (% modification) 5.0 μM 0.25 hr ([1]; 5.0 μM compound) [%] | MSRA (% modification) 5.0 μM 0.017 hr ([1]; 5.0 μM compound, 0.017 hr) [%] | Compound
– | 0.071 | 53 | – | – | C=CC(=O)N1CCN(c2nc(OC[C@@H]3CCCN3C)nc3c(Oc4c(C)c(Cl)cc5[nH]ncc45)nc(Cl)cc23)CC1 [Example 10G, 1-[4-(6-chloro-8-[(6-chloro-5-methyl-1H-indazol-4-yl)oxy]-2-{[(2S)-1-methylpyrrolidin-2-yl]methoxy}pyrido[3,4-d]pyrimidin-4-yl)piperazin-1-yl]prop-2-en-1-one]
– | 0.022 | – | 82 | 70 | C=CC(=O)N1CCN(c2nc(O[C@@H]3CN(C)C[C@H]3OC)nc3c(Oc4c(Cl)c(F)cc5[nH]ncc45)nccc23)CC1 [Example 10I, 1-[4-(8-[(5-chloro-6-fluoro-1H-indazol-4-yl)oxy]-2-{[(3R,4R)-4-methoxy-1-methylpyrrolidin-3-yl]oxy}pyrido[3,4-d]pyrimidin-4-yl)piperazin-1-yl]prop-2-en-1-one]
– | 0.237 | 80 | – | – | C=CC(=O)N1CCN(c2nc(OC[C@@H]3C[C@H](F)CN3C)nc3c(Oc4c(Cl)c(F)cc5[nH]ncc45)nccc23)CC1 [Example 11H, 1-[4-(8-[(5-chloro-6-fluoro-1H-indazol-4-yl)oxy]-2-{[(2S,4S)-4-fluoro-1-methylpyrrolidin-2-yl]methoxy}pyrido[3,4-d]pyrimidin-4-yl)piperazin-1-yl]prop-2-en-1-one]
– | 0.321 | – | 32 | – | C=CC(=O)N1CCN(c2nc(O[C@H]3CN(C)C[C@@H]3OC)nc3c(Oc4c(Cl)c(F)cc5[nH]ncc45)nccc23)CC1 [Example 11I, 1-[4-(8-[(5-chloro-6-fluoro-1H-indazol-4-yl)oxy]-2-{[(3S,4S)-4-methoxy-1-methyl-pyrrolidin-3-yl]oxy}pyrido [3,4-d]pyrimidin-4-yl)piperazin-1-yl]prop-2-en-1-one]
– | 0.071 | 75 | – | – | C=CC(=O)N1CCN(c2nc(OCC3CCOC3)nc3c(Oc4c(Cl)c(F)cc5[nH]ncc45)nc(Cl)cc23)CC1 (stereo not drawn) [Example 12G, 1-(4-{6-chloro-8-[(5-chloro-6-fluoro-1H-indazol-4-yl)oxy]-2-(tetrahydrofuran-3-ylmethoxy)pyrido[3,4-d]pyrimidin-4-yl}piperazin-1-yl)prop-2-en-1-one]
– | 0.691 | 67 | 49 | – | C=CC(=O)N1CCN(c2nc(OC[C@@H]3C[C@H](OC)CN3C)nc3c(Oc4c(Cl)c(F)cc5[nH]ncc45)nccc23)CC1 [Example 12H, 1-[4-(8-[(5-chloro-6-fluoro-1H-indazol-4-yl)oxy]-2-{[(2S,4S)-4-methoxy-1-methylpyrrolidin-2-yl]methoxy}pyrido[3,4-d]pyrimidin-4-yl)piperazin-1-yl]prop-2-en-1-one]
